Data reported in patent US5658928A, “Amino acid derivatives” (Hoffmann-La Roche Inc., priority 1991, dated 1997).

What was measured:
[1] = target: T1, fibrinogen receptor, glycoprotein IIb/IIIa (Homo sapiens, UniProt P05106+P08514); assay: inhibition of the binding of fibrinogen to the immobilized fibrinogen receptor, glycoprotein IIb/IIIa (ELISA); conditions: concentration required to inhibit the binding of fibrinogen to the immobilized receptor by 50%
T1 construct: The glycoprotein IIb/IIIa is obtained from Triton X-100 extracts of human blood platelets; from tissue; host or cells: human blood platelets (Triton X-100 extract)
T1 sequence (P08514 32-887 limits assumed): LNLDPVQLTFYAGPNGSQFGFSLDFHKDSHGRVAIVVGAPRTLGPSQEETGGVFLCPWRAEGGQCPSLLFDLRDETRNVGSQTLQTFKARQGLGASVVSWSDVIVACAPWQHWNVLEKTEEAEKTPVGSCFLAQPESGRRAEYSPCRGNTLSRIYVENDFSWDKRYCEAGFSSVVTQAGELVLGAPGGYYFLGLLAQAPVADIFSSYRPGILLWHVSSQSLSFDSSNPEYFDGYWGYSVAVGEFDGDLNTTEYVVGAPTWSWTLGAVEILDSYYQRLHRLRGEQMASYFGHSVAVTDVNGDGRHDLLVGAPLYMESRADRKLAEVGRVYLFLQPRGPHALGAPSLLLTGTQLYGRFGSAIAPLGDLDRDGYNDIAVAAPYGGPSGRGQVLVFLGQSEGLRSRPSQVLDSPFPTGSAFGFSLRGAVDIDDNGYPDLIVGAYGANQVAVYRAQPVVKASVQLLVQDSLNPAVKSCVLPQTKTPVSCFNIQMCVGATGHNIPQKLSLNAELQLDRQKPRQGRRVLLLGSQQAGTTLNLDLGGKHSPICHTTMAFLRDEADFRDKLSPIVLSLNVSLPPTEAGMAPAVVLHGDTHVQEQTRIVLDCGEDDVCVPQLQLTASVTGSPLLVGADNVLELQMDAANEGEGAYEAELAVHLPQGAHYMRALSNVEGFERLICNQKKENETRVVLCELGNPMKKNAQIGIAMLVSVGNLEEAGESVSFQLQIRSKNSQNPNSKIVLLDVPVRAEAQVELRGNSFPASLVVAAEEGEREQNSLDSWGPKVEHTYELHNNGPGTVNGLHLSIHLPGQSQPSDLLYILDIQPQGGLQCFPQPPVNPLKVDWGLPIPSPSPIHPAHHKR
T1 sequence (P08514 891-1039 partner limits assumed): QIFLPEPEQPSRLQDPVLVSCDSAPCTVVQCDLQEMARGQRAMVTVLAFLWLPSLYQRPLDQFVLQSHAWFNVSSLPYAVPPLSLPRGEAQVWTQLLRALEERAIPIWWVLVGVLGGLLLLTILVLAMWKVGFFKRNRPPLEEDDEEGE
T1 sequence (P05106 27-788): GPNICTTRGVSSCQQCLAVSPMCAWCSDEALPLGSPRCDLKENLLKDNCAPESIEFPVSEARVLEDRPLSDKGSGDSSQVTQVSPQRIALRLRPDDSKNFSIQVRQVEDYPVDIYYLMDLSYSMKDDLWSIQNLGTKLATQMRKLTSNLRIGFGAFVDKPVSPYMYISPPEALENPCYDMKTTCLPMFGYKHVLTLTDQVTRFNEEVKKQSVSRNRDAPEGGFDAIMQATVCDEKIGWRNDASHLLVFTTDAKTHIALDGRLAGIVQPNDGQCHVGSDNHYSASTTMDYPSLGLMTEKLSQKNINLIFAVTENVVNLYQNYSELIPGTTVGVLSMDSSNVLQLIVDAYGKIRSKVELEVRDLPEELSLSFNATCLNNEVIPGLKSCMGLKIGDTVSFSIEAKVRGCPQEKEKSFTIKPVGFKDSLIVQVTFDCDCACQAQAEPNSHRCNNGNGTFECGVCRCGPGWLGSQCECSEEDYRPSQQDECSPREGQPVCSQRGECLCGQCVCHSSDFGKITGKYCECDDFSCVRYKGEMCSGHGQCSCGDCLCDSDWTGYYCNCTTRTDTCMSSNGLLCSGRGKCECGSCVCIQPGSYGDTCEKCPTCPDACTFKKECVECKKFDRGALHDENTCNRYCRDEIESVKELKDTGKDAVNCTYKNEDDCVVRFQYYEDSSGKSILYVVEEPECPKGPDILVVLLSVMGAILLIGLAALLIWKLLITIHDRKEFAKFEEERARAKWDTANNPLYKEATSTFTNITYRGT
Protocol: The glycoprotein IIb/IIIa is obtained from Triton X-100 extracts of human blood platelets and purified by lectin affinity chromatography (Analytical Biochemistry 151, 1985, 169-177) and chromatography on an Arg-Gly-Asp-Ser affinity column (Science 231, 1986, 1559-62). The thus-obtained receptor protein is bonded to microtiter plates. The specific binding of fibrinogen to the immobilized receptor is determined with the aid of an ELISA system ("enzyme-linked immunosorbent assay"). The IC50 values hereinafter correspond to that concentration of the test substance which is required to inhibit the binding of fibrinogen to the immobilized receptor by 50%: […]

in vivo = conditions: iv, i.v. in the mouse
Source text: These compounds have low toxicity.

SMILES	IC50 [1]	LD50 (in vivo)
N=C(N)c1ccc(C(=O)NCC(=O)N2CCC(OCC(=O)O)CC2)cc1 [Example 1, [[1-[N-(p-amidinobenzoyl)glycyl]-4-piperidinyl]oxy]acetic acid]	10 µM	–
C[C@H](NC(=O)c1ccc(C(=N)N)cc1)C(=O)N1CCC(OCC(=O)O)CC1 [Example 3, [[1-[N-(p-amidinobenzoyl)-L-alanyl]-4-piperidinyl]oxy]acetic acid]	1.7 µM	250 mg/kg
C[C@@H](NC(=O)c1ccc(C(=N)N)cc1)C(=O)N1CCC(OCC(=O)O)CC1 [Example 4, [[1-[N-(p-amidinobenzoyl)-D-alanyl]-4-piperidinyl]oxy]acetic acid]	140 µM	–
C[C@H](NC(=O)c1ccc(C(=N)N)cn1)C(=O)N1CCC(OCC(=O)O)CC1 [Example 5, [[1-[N-[(5-amidino-2-pyridyl)carbonyl]-L-alanyl]-4-piperidinyl]oxy]acetic acid]	1 µM	500 mg/kg
CC(C)[C@H](NC(=O)c1ccc(C(=N)N)cc1)C(=O)N1CCC(OCC(=O)O)CC1 [Example 6, [[1-[N-(p-amidinobenzoyl)-L-valyl]-4-piperidinyl]oxy]-acetic acid]	27 µM	–
CC(C)C[C@H](NC(=O)c1ccc(C(=N)N)cc1)C(=O)N1CCC(OCC(=O)O)CC1 [Example 7, [[1-[N-(p-amidinobenzoyl)-L-leucyl]-4-piperidinyl]oxy]acetic acid]	33 µM	–
N=C(N)c1ccc(C(=O)N[C@@H](Cc2ccc(O)cc2)C(=O)N2CCC(OCC(=O)O)CC2)cc1 [Example 14, [[1-[N-(p-amidinobenzoyl)-L-tyrosil]-4-piperidinyl]oxy]acetic acid]	–	250 mg/kg
